{
  "source": "paper PMC5272823",
  "about": "(Peptides, 2016)",
  "key": {"[1]": {"type": "in vivo, Female C57BL/6J mice", "conditions": "glucose 0.35 g/kg i.v. alone; plasma ELISA; n=15"}, "[2]": {"conditions": "ref [10]; cited from earlier work"}},
  "note": "Ends that are not written are not given here.",
  "data": [
    {"compound": "OC[C@H]1OC(O)[C@H](O)[C@@H](O)[C@@H]1O", "note": "(stereo partly drawn) [glucose]", "values": [
      {"measurement": "Insulin peak concentration at 1 min", "setting": "[1]", "value": "0.9 ± 0.2", "unit": "nmol/L"}
    ]},
    {"compound": "GLP-1 (HAEGTFTSDVSSYLEGQAAKEFIAWLVKGR; ends and bridges not checked; UniProt P01275 98-127, looked up)", "values": [
      {"measurement": "Effect on insulin clearance", "setting": "[2]", "value": "diminish insulin clearance"},
      {"measurement": "Effect on insulin secretion", "setting": "[2]", "value": "stimulate insulin secretion"}
    ]}
  ]
}
